The values that follow come from US4017487A, “7β-(D-5-amino-5-carboxyvaleramido )-7-methoxy-3-substituted-3-cephem-4-carboxylic acid antibiotics” (priority 1974, dated 1977).

For data set [1], the system named is gram-negative and gram-positive bacteria. The data set is described as follows: Antibacterial activity (general statements). The format is cell-based.
For data set [2], the system named is Vibrio percolans MB-1272. As to the kind of experiment: Disc-plate assay using Vibrio percolans.
Data set [3] has as its system Escherichia coli. The data set is described as follows: In vitro disc-plate agar diffusion, antibacterial spectrum (7 mm disc; 7 mm = no inhibition zone). The format is cell-based. As to conditions: 16 h, 192 μg/ml, inoculum 5 ml/150 ml, 25° C., read-out: Inhibition Zone Diameter.
Data set [4] relates to Bacillus sp. The data set is described as follows: In vitro disc-plate agar diffusion, antibacterial spectrum (7 mm = no zone). In kind it is cell-based. Conditions: 16 h, 192 μg/ml, inoculum 5 ml/150 ml, 25° C., read-out: Inhibition Zone Diameter.
Data set [5] concerns Proteus vulgaris. Described as above. The format is cell-based. Conditions: 16 h, read-out: Inhibition Zone Diameter.
For data set [6], the system named is Bacillus subtilis. The data set is described as above. In kind it is cell-based. As to conditions: 16 h, read-out: Inhibition Zone Diameter.
Data set [7] deals with Salmonella gallinarum. The description is as above. The format is cell-based. As to conditions: Salmonella enterica, 16 h, 192 μg/ml, inoculum 10 ml/150 ml, 25° C., read-out: Inhibition Zone Diameter.
For data set [8], the system named is Xanthomonas vesicatoria. Described as above. In kind it is cell-based. Conditions: 16 h, read-out: Inhibition Zone Diameter.
Data set [9] deals with Escherichia coli strains. As to the kind of experiment: microbe, parasite or virus in culture. The format is cell-based. Conditions: 16 h, 192 μg/ml, Sensitive parent, 25° C., read-out: Inhibition Zone Diameter.
The test system of data set [10] is Escherichia coli W-MB-60. As to the kind of experiment: Special effects spectrum in vitro study, disc-plate (7 mm = no zone). The format is cell-based. Conditions: WMB60, 16 h.
The test system of data set [11] is gram-negative and gram-positive infections. As to the kind of experiment: In vivo protection against infection (general statements). Also noted: species or system mice. The source says: (§1) Methods: The method employed in this characterization is as follows: Female white Swiss mice, average weight 20-23 grams, were infected intraperitoneally with 3-20 times the number of organisms calculated to be lethal for 50% of the infected control animals (3-20 LD50 doses). At the time of infection and again six hours later, therapy was given by the designated route. Controls of the virulence of the culture and the toxicity of the antibiotic for uninfected mice were included in the tests. Seven days after infection the test was considered complete and the amount of the antibiotic (I) that would be required to protect 50% of the infected and treated animals was calculated by the method of Knudsen and Curtis; J. Amer. Stat. Assoc. Vol. 42: page 282 (1947).
The method employed in these studies is the same as described above with regard to the in vivo characterization of 810A.

The subject of data set [12] is degradative bacteria / enzymatic degradation. The data set is described as follows: Resistance to enzymatic degradation / bacterial inactivation (general statements). In kind it is biochemical. As to conditions: compared with cephalosporin C. An excerpt:
Bacterial Inactivation with 810A: An in vitro study was designed to determine the resistance of Antibiotic 810A, to bacterial inactivation as compared with cephalosporin C, cephaloridine and cephalothin.

In data set [13] the test system is Proteus vulgaris MB-838. As to the kind of experiment: Disc-plate assay using Proteus vulgaris.
The subject of data set [14] is Proteus morganii 3202. As to the kind of experiment: In vivo mouse protection test. Also noted: species or system white Swiss mice. As to conditions: 4000 mg. × 2 doses.
From the text: as §1
The method employed in these studies is the same as described above with regard to the in vivo characterization of 810A. The results of these tests are described below in Table XIb:
Administration was by subcutaneous injection. At the completion of the test period, usually seven days after administration, the amount of product required to protect 50% of the mice (ED50) from this otherwise fatal injection was calculated: […]

Data set [15] has as its system Proteus morganii 356. As to the kind of experiment: In vivo mouse protection test, cephalosporin-resistant clinical isolate. Also noted: species or system white Swiss mice. Conditions: s.c. × 2 doses.
From the text: as §1
In addition to the aforementioned in vivo trials of the product, a clinical isolate of Proteus morganii 356 which is resistant to cephalosporins and capable of degrading cephalosporin C, was employed in a mouse protection test performed in the same manner as reported above.

Data set [16] deals with Aerobacter cloacae (MB-2646). As to the kind of experiment: Bacterial inactivation, cell-free extract. In kind it is biochemical. Conditions: for Antibiotic Activity Remaining: starting 250 μg./ml. The procedure:
The ability of Antibiotic 810A and cephalosporin C to withstand the degradative effect of the culture Aerobacter cloacae (MB-2646) was also determined. This culture is gram-negative and resistant to cephalosporin C. […] The source of the inactivating substance is a 1:160 dilution of the filtrate of an 18 hour 37° C. shake culture of Aerobacter cloacae MB-2646 in nutrient broth containing 0.2% yeast extract. Table XIV, infra, indicates the percent inactivation of Antibotic 810A, cephalothin, cephaloridine and cephalosporin C on Vibrio percolans (MB-1272) via this method:
Using the same assay procedure as described above, Table XV, infra, indicates the relative resistance of Antibiotic 810A to enzymatic inactivation by Aerobacter cloacae. The starting concentration is 250 μg./ml. Results are expressed in μg./ml.

In data set [17] the test system is Alcaligenes faecalis (MB-9). As to conditions: alcaligenes faecalis cells, 3 h.
In data set [18] the test system is penicillinase. Conditions: cited from earlier work.
Data set [19] relates to Alcaligenes faecalis (MB-9). As to conditions: known property of the organism; cited from earlier work.
Data set [20] relates to gram-negative and gram-positive bacteria. As to conditions: cited from earlier work.
Data set [21] relates to Escherichia coli 236. As to the kind of experiment: Bacterial inactivation. Conditions: four hours; B. subtilis (MB-964); 240 min.
Data set [22] concerns Proteus morganii 251. The data set is described as follows: Bacterial inactivation. Conditions: four hours; B. subtilis (MB-964); 240 min.
Data set [23] deals with Proteus morganii 356. As to the kind of experiment: Bacterial inactivation. Conditions: four hours; B. subtilis (MB-964); 240 min.
Data set [24] deals with Proteus mirabilis 241. The data set is described as follows: Bacterial inactivation. Conditions: four hours; B. subtilis (MB-964); 240 min.
Data set [25] relates to Alcaligenes viscosus (MB-12). As to the kind of experiment: Bacterial inactivation, washed bacterial cells. As to conditions: 4 hour incubation; assayed on B. subtilis (MB-964) plates.
[26] abbreviates: 2 hour incubation, assay organism B. subtilis 964.
Setting [27] is: 2 hour incubation, assay organism V. percolans 1272.
[28] abbreviates: 2 hour incubation, cell-free extract, assayed on V. percolans (MB-1272) plates.

Where a name gives a salt, the structure may show the parent alone. Read-outs that look alike come from different tables or passages of the source.

In the case of `CO[C@@]1(NC(=O)CCC[C@@H](NC(=O)OC(C)(C)C)C(=O)O)C(=O)N2C(C(=O)O)=C(COC(N)=O)CS[C@@H]21` [7β-(D-5N-tert-tertiary-butoxycarbonylamino-5-carboxyvaleramido)-3-(carbamoyloxymethyl)-7-methoxy-3-cephem-4-carboxylic acid], the “biopotency relative to starting material” value in data set [1] (relative to disodium salt of 842A) is on record as “one-tenth”.

Regarding `CO[C@@]1(NC(=O)CCC[C@@H](N)C(=O)O)C(=O)N2C(C(=O)O)=C(C)CS[C@@H]21` [7β-(D-5-amino-5-carboxyvaleramido)-3-methyl-7-methoxy-3-cephem-4-carboxylic acid], the bioactivity entry in [2] (50 μg/ml) is given as “Inactive”.

As for `CO[C@@]1(NC(=O)CCC[C@@H](N)C(=O)O)C(=O)N2C(C(=O)O)=C(CN=[N+]=[N-])CS[C@@H]21` [7β-(D-5-amino-5-carboxyvaleramido)-3-(azidomethyl)-7-methoxy-3-cephem-4-carboxylic acid], the bioactivity entry in [1] (several strains of bacteria) is on record as “possessed bioactivity against several strains of bacteria”.

Regarding `CO[C@@]1(NC(=O)CCC[C@@H](N)C(=O)O)C(=O)N2C(C(=O)O)=C(COC(N)=O)CS[C@@H]21` [Sodium Salt], the zone of inhibition at 192 µg/mL in data set [3] was 18 mm; in data set [4], 7 mm; in [5], 24 mm; in [6] it was 18 mm; in data set [7], 25 mm; in [8] it was 17 mm. In addition, the zone of inhibition at 192 µg/mL is 18 mm in data set [9]; 24 mm in data set [10] (pH 9, read-out: Inhibition Zone Diameter, 192 μg/ml, 0.1 M Phosphate Buffer pH 9); 18 mm in data set [10] (read-out: Inhibition Zone Diameter, 192 μg/ml, Cation Exchange Resin (Dow ET 91) 1%); 18 mm in [10] (read-out: Inhibition Zone Diameter, 192 μg/ml, Control (no additions)). Also, the “concentration giving a 25 mm. zone” value in [2] (25 mm. zone, listed as Sodium Salt of 842A) stood at 5 µg/mL.

Regarding `COC(=Cc1ccc(OS(=O)(=O)O)cc1)C(=O)OCC1=C(C(=O)O)N2C(=O)[C@](NC(=O)CCC[C@@H](N)C(=O)O)(OC)[C@H]2SC1` [Ic, 7β-(D-5-amino-5-carboxyvaleramido)-3-(α-methoxy-p-sulfooxycinnamoyloxymethyl)-7-methoxy-3-cephem-4-carboxylic acid], the “in vivo protection / activity” value in [11] (mouse, in vivo) was “when administered intraperitoneally, it is effective against a variety of gram-negative and gram-positive infections”. Further, the “oral protection against infections” value in data set [11] (oral) is “protects against infections due to Proteus vulgaris”. Further, the “resistance to enzymatic degradation” value in data set [12] is listed as “more resistant to enzymatic degradation than cephalosporin C”. In addition, in data set [13] (Example 6 separation), the “Total Biological Units” value was 10,000 units.

Regarding `O=C(Cc1cccs1)N[C@@H]1C(=O)N2C(C(=O)[O-])=C(C[n+]3ccccc3)CS[C@H]12` [Cephaloridine], in [14], the “protection against Proteus morganii 3202” value is recorded as “failed to protect”. Besides, the “ED50 by Subcutaneous Route × 2 Doses (average of Two Trials)” value in data set [15] is listed as 9,270 μg. For the same molecule, the “Antibiotic Activity Remaining” value in data set [16] (setting [26]) and in data set [16] (setting [27]) was less than 10 µg/mL each time. Further, the “percent inactivation” value in [16] (aerobacter cloacae culture filtrate, 2 h) stood at 96%.

`CC(=O)OCC1=C(C(=O)O)N2C(=O)[C@@H](NC(=O)Cc3cccs3)[C@H]2SC1` [Cephalothin]: in data set [14], the “protection against Proteus morganii 3202” value is “failed to protect”. The “ED50 by Subcutaneous Route × 2 Doses (average of Two Trials)” value in [15] was > 20,000 μg. The “percent inactivation” value in data set [16] (setting [28]) was determined as 66%; in data set [17] it was 50%. For the same molecule, the “Antibiotic Activity Remaining” value in data set [16] (setting [26]) came out at 140 µg/mL; in data set [16] (setting [27]), 85 µg/mL.

Regarding `CC1(C)S[C@@H]2[C@H](NC(=O)Cc3ccccc3)C(=O)N2[C@H]1C(=O)O` [Penicillin G], the resistance to penicillinase entry in [18] was “in the presence of penicillinase it is degraded to a form which is ineffective against most pathogens”.

Take `CC(=O)OCC1=C(C(=O)O)N2C(=O)[C@@H](NC(=O)CCC[C@@H](N)C(=O)O)[C@H]2SC1` [Cephalosporin C]: the “percent inactivation” value in data set [16] (setting [28]) is reported as 96%; in [21] it was greater than 99%; in data set [22], greater than 99%; in data set [23], greater than 99%; in [24], 72%; in [25], greater than 99%. Also, the “inactivation of cephalosporin C” value in data set [19] is reported as “completely inactivate”. Also, the resistance to penicillinase entry in data set [18] is listed as “inherent resistance to penicillinase”. Also, the results for the antibacterial activity result in data set [20] and in data set [20] (listed as cepahlosporin C) were “only moderately active” and “relatively low antibacterial activity”, respectively.

On to `COC(=Cc1ccc(O)cc1)C(=O)OCC1=C(C(=O)O)N2C(=O)[C@](NC(=O)CCC[C@@H](N)C(=O)O)(OC)[C@H]2SC1` [7β-(D-5-amino-5-carboxyvaleramido)-3-(α-methoxy-p-hydroxycinnamoyloxymethyl)-7-methoxy-3-cephem-4-carboxylic acid], for which the IC (25 mm zone) in [13] (Proteus vulgaris, MB838, read-out: bio-potency (concentration for a 25 mm. zone)) stood at 18 µg/mL.
